# Data from US12023319B2, “Carboxylic acid aromatic amides” (priority 2016, dated 2024).
# Biological target: T1, human Bradykinin B1 receptor (Homo sapiens, UniProt P46663)
# T1 construct: host or cells: CHO-K1
# T1 sequence (P46663 1-353): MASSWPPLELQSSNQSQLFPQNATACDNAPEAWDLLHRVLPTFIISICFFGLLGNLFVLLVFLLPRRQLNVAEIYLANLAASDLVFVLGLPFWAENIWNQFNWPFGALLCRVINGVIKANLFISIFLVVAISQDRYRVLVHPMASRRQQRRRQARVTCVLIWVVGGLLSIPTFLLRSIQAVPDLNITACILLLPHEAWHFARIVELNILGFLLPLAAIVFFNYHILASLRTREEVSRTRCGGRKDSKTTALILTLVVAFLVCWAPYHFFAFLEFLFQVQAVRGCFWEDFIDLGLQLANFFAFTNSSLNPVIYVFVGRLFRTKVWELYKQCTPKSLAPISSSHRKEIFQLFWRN
# Experiment: Calcium flux assay (FLIPR), CHO-K1 cells expressing human Bradykinin B1 receptor, absence of 0.1% BSA (hB1 free IC50)
# Assay type: cell-based
# Conditions: absence of 0.1% BSA in assay buffer
# Experimental: The potency to inhibit the Bradykinin B1 receptor was determined for the Compound Examples of this invention in a cell-based fluorescent calcium-mobilisation assay. The assay measures the ability of Compound Examples to inhibit Bradykinin B1 receptor agonist-induced increase of intracellular free Ca^2+ in the cell line expressing Bradykinin B1 receptor. Specifically, calcium indicator-loaded cells are pre-incubated in the absence or presence of different concentrations of Compound Examples followed by the stimulation with a selective Bradykinin B1 receptor agonist peptide. The change of the intracellular Ca^2+ concentration is monitored with a fluorescent plate reader FLIPR^TETRA® (Molecular Devices).
# Calcium Flux Assays (FLIPR) with Cells Expressing Human Bradykinin B1 Receptor (hB1)
# CHO-K1 cell line expressing human Bradykinin B1 receptor is purchased from Euroscreen (Gosselies, Belgium, with reference name hB1-D1). The cells are grown in Nutrient Mixture Ham's F12 (Sigma) containing 10% Foetal bovine serum (Sigma) and 400 μg/mL G418 (Sigma), 5 μg/mL puromycin (Sigma).
# The effect of BSA on the potency of endothelin receptor antagonists have been described in the prior art (Wu-Wong, J. R. et al. (1997), JPET 281: 791-798). The teaching can be applied in analogy to testing the potency of Bradykinin B1 receptor antagonist in the FLIPR assays.
# For the calcium flux assay, 80% confluent cells are detached from the culture vessels with Versene (Gibco), and seeded into 384-well plates (Cell binding Surface; Corning, NY; #3683) at a density of 15,000 cells per well. Cells are seeded in a volume of 50 μL in medium without antibiotics and incubated overnight in a humidified atmosphere with 5% CO2 at 37° C. […] The calcium indicator loaded cells are incubated at 37° C. for 2 hrs. Extracellular dye is then removed and each well is filled with 45 μL of assay buffer. Cell plates are kept in dark until used. Compound examples are assayed at 8 concentrations in triplicate. Serial 10-fold dilutions in 100% DMSO are made at a 100-times higher concentration than the final concentration, and then diluted 1:10 in assay buffer. 5 μL of each diluted compound is added to the well of cell plates (yielding final concentration with 1% DMSO), and incubated for 30 min at 28° C. before the addition of Bradykinin B1 receptor agonist on the FLIPR instrument.
# The addition of agonist 20 μl per well to the assay plate is carried out on the FLIPR instrument while continuously monitoring Ca2+-dependent fluorescence at 538 nm. A peptide antagonist Lys-(Des-Arg-Leu)-Bradykinin (Bachem, Brackley) at 20 µM is used to determine the full inhibition as control.
# Peak fluorescence is used to determine the response to agonist obtained at each concentration of Compound Examples by the following equation: % Response=100*(RFU(compound)−RFU(control))/(RFU(DMSO)−RFU(control))
# RFU means relative fluorescence units.
# Control means full inhibition by the peptide antagonist Lys-(Des-Arg-Leu)-Bradykinin at 20 µM.
# The response values are plotted against the logarithm of the compound concentrations. The Compound Examples are tested in triplicates per plate and mean values are plotted in Excel XLfit to determine IC50 values, percentage of maximal inhibition and the Hill slopes.
row,IC50 [nM],Compound
1,110,"O=C(O)c1cc(NC(=O)C2(c3ccc(C(F)(F)F)cc3F)CC2)cc(Cl)c1-c1ccc(C(F)F)nc1 [Example 102, 3-Chloro-2-[6-(difluoromethyl)pyridin-3-yl]-5-[({1-[2-fluoro-4-(trifluoromethyl)phenyl]cyclopropyl}carbonyl)amino]benzoic acid]"
2,3000,"COc1ccc(F)c(C2(C(=O)Nc3ccc(-c4cnn(C5CCC5)c4)c(C(=O)O)c3)CC2)c1 [Example 63, 2-(1-Cyclobutyl-1H-pyrazol-4-yl)-5-({[1-(2-fluoro-5-methoxyphenyl)cyclopropyl]carbonyl}amino)benzoic acid]"
3,31,"O=C(O)c1cc(NC(=O)C2(c3ccc(C(F)(F)F)cc3F)CC2)ccc1-c1cnn(CC(F)(F)F)c1 [Example 34, 5-[({1-[2-Fluoro-4-(trifluoromethyl)phenyl]cyclopropyl}carbonyl)amino]-2-[1-(2,2,2-trifluoroethyl)-1H-pyrazol-4-yl]benzoic acid]"
4,3.7,"O=C(O)c1cc(NC(=O)C2(c3ccc(Cl)cc3F)CC2)ccc1-c1cnc(C2CCC2)s1 [Example 146, 5-({[1-(4-Chloro-2-fluorophenyl)cyclopropyl]carbonyl}amino)-2-(2-cyclobutyl-1,3-thiazol-5-yl)benzoic acid]"
5,59,"CC[C@@H](C)n1cc(-c2ccc(NC(=O)C3(c4ccc(C(F)(F)F)cc4F)CC3)cc2C(=O)O)cn1 [Example 133, 2-{1-[(2R)-Butan-2-yl]-1H-pyrazol-4-yl}-5-[({1-[2-fluoro-4-(trifluoromethyl)phenyl]cyclopropyl}carbonyl)amino]benzoic acid]"
6,33,"CC[C@H](C)n1cc(-c2c(F)cc(NC(=O)C3(c4ccc(C(F)(F)F)cc4F)CC3)cc2C(=O)O)cn1 [Example 135, 2-{1-[(2S)-Butan-2-yl]-1H-pyrazol-4-yl}-3-fluoro-5-[({1-[2-fluoro-4-(trifluoromethyl)phenyl]cyclopropyl}carbonyl)amino]benzoic acid]"
7,8.7,"CC(C1CC1)n1cc(-c2ccc(NC(=O)C3(c4ccc(C(F)(F)F)cc4F)CC3)cc2C(=O)O)cn1 (centres unmarked) [Example 153, 2-[1-(1-Cyclopropylethyl)-1H-pyrazol-4-yl]-5-[({1-[2-fluoro-4-(trifluoromethyl)phenyl]cyclopropyl}carbonyl)amino]benzoic acid]"
8,22,"CC1(Cn2cc(-c3ccc(NC(=O)C4(c5ccc(C(F)(F)F)cc5F)CC4)cc3C(=O)O)cn2)CC1 [Example 151, 5-[({1-[2-Fluoro-4-(trifluoromethyl)phenyl]cyclopropyl}carbonyl)amino]-2-{1-[(1-methylcyclopropyl)methyl]-1H-pyrazol-4-yl}benzoic acid]"
9,69,"CC(C)n1cc(-c2c(F)cc(NC(=O)C3(c4ccc(OC(F)(F)F)cc4)CC3)cc2C(=O)O)cn1 [Example 86, 3-Fluoro-2-[1-(propan-2-yl)-1H-pyrazol-4-yl]-5-[({1-[4-(trifluoromethoxy)phenyl]cyclopropyl}carbonyl)amino]benzoic acid]"
10,70,"Cn1cc(-c2c(F)cc(NC(=O)C3(c4ccc(OC(F)(F)F)cc4F)CC3)cc2C(=O)O)cn1 [Example 137, 3-Fluoro-5-[({1-[2-fluoro-4-(trifluoromethoxy)phenyl]cyclopropyl}carbonyl)amino]-2-(1-methyl-1H-pyrazol-4-yl)benzoic acid]"
11,200,"O=C(O)c1cc(NC(=O)C2(c3ccc(C(F)(F)F)cc3F)CC2)ccc1-c1cnn(C2CC2)c1 [Example 124, 2-(1-Cyclopropyl-1H-pyrazol-4-yl)-5-[({1-[2-fluoro-4-(trifluoromethyl)phenyl]cyclopropyl}carbonyl)amino]benzoic acid]"
12,2800,"O=C(O)c1cc(NC(=O)C2(c3ccccc3)CC2)cc(F)c1-c1cnn(C2CCC2)c1 [Example 141, 2-(1-Cyclobutyl-1H-pyrazol-4-yl)-3-fluoro-5-{[(1-phenylcyclopropyl)carbonyl]amino}benzoic acid]"
13,240,"CCC(F)(F)c1ccc(-c2c(C)cc(NC(=O)C3(c4ccc(C(F)(F)F)cc4F)CC3)cc2C(=O)O)cn1 [Example 112, 2-[6-(1,1-Difluoropropyl)pyridin-3-yl]-5-[({1-[2-fluoro-4-(trifluoromethyl)phenyl]cyclopropyl}carbonyl)amino]-3-methylbenzoic acid]"
14,130,"CC(F)(F)c1ccc(-c2ccc(NC(=O)C3(c4ccc(C(F)(F)F)cc4F)CC3)cc2C(=O)O)cn1 [Example 31, 2-[6-(1,1-Difluoroethyl)pyridin-3-yl]-5-[({1-[2-fluoro-4-(trifluoromethyl)phenyl]cyclopropyl}carbonyl)amino]benzoic acid]"
15,2800,"O=C(O)c1cc(NC(=O)C2(c3ccc(C(F)(F)F)cc3F)CC2)ccc1-n1cc(C(F)(F)F)cn1 [Example 16, 5-[({1-[2-Fluoro-4-(trifluoromethyl)phenyl]cyclopropyl}carbonyl)amino]-2-[4-(trifluoromethyl)-1H-pyrazol-1-yl]benzoic acid]"
16,840,"O=C(O)c1cc(NC(=O)C2(c3cc(F)cc(Cl)c3)CC2)ccc1-c1cnn(C2CCC2)c1 [Example 57, 5-({[1-(3-Chloro-5-fluorophenyl)cyclopropyl]carbonyl}amino)-2-(1-cyclobutyl-1H-pyrazol-4-yl)benzoic acid]"
17,44,"CC[C@@H](C)n1cc(-c2ccc(NC(=O)C3(c4ccc(OC(F)(F)F)cc4F)CC3)cc2C(=O)O)cn1 [Example 134, 2-{1-[(2R)-Butan-2-yl]-1H-pyrazol-4-yl}-5-[({1-[2-fluoro-4-(trifluoromethoxy)phenyl]cyclopropyl}carbonyl)amino]benzoic acid]"
18,160,"CC1CCC(C2(C(=O)Nc3cc(F)c(-c4cnn(C5CCC5)c4)c(C(=O)O)c3)CC2)CC1 (centres unmarked) [Example 145, 2-(1-Cyclobutyl-1H-pyrazol-4-yl)-3-fluoro-5-({[1-(4-methylcyclohexyl)cyclopropyl]carbonyl}amino)benzoic acid]"
19,11,"CC(C)(C)Cn1cc(-c2ccc(NC(=O)C3(c4ccc(C(F)(F)F)cc4F)CC3)cc2C(=O)O)cn1 [Example 76, 2-[1-(2,2-Dimethylpropyl)-1H-pyrazol-4-yl]-5-[({1-[2-fluoro-4-(trifluoromethyl)phenyl]cyclopropyl}carbonyl)amino]benzoic acid]"
20,220,"O=C(O)c1cc(NC(=O)C2(c3ccc(C(F)(F)F)cc3F)CC2)ccc1-c1ccc(C(F)(F)F)s1 [Example 48, 5-[({1-[2-Fluoro-4-(trifluoromethyl)phenyl]cyclopropyl}carbonyl)amino]-2-[5-(trifluoromethyl)-2-thienyl]benzoic acid]"
21,3100,"O=C(O)c1cc(NC(=O)C2(Cc3ccc(Cl)cc3)CC2)cc(F)c1-c1cnn(C2CCC2)c1 [Example 142, 5-({[1-(4-Chlorobenzyl)cyclopropyl]carbonyl}amino)-2-(1-cyclobutyl-1H-pyrazol-4-yl)-3-fluorobenzoic acid]"
22,2000,"O=C(O)c1c(-c2cnn(C3CCC3)c2)ccc(NC(=O)C2(c3ccc(OC(F)(F)F)cc3F)CC2)c1F [Example 99, 6-(1-Cyclobutyl-1H-pyrazol-4-yl)-2-fluoro-3-[({1-[2-fluoro-4-(trifluoromethoxy)phenyl]cyclopropyl}carbonyl)amino]benzoic acid]"
23,740,"O=C(O)c1cc(NC(=O)C2(c3cccc(Cl)c3F)CC2)ccc1-c1cnn(C2CCC2)c1 [Example 52, 5-({[1-(3-Chloro-2-fluorophenyl)cyclopropyl]carbonyl}amino)-2-(1-cyclobutyl-1H-pyrazol-4-yl)benzoic acid]"
